Data reported in publication PMC9688808, “Discovery of Novel Lin28 Inhibitors to Suppress Cancer Cell Stemness” (Cancers, 2022).

Experiments:
Lin28B ZKD = target: T1, Lin28B ZKD (Homo sapiens, UniProt Q6ZN17); test: Fluorescence polarization (FP) assay, Lin28B ZKD with FAM-labeled Let-7 probe; format: binding; conditions: for IC50: 10 uM Lin28B ZKD, 1 nM FAM-labeled Let-7 probe, 1 nM–1000 uM compound
T1 construct: His-tagged human Lin28B ZKD (aa110-174); His-tag; made in house; host or cells: Escherichia coli BL21
T1 sequence (Q6ZN17 110-174): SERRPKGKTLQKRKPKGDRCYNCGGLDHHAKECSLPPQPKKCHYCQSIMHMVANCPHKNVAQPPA
Text: ZINC compounds were purchased from Enamine (Kyiv, Ukraine), Life Chemicals Ltd. (Kyiv, Ukraine), or Princeton Biomolecular Research (Princeton, NJ, USA) with >90% purity. Upon receiving the compounds, the molecular masses were validated by LC/MS/MS. His-tagged human Lin28B ZKD (aa110-174), Lin28B CSD+ZKD (aa7-204), and Lin28A ZKD (aa121-187) were expressed in Escherichia coli BL21 cells and purified by immobilized metal ion affinity chromatography (IMAC) with nickel nitrilotriacetic acid (NiNTA) resin and size exclusion chromatography (s75 10/300 GL) as we have previously reported.
The fluorescein amidites (FAM)-tagged Let-7 probe with the sequence of […] was purchased from Integrated DNA Technologies (IDT). The probe at the concentrations ranging from 1 nM to 50 uM was incubated with Lin28B (ZKD) or Lin28 (CSD+ZKD) to a final volume of 30 uL at room temperature for 20 min. To read the fluorescence, a TECAN 500 machine was used. Fluorescence polarization was calculated using the following equation: P=Fparrallel−Fperpendicular/Fparrallel+Fperpendicular where P is the fluorescence polarization reading, F parallel is the fluorescence intensity acquired from the parallel excitation plane, and F perpendicular is the fluorescence intensity acquired from the perpendicular direction of the excitation plane. The total fluorescence intensity is estimated using the following equation: F=Fparallel+2Fperpendicular
All the raw FP signal data from the TECAN 500 FP results were analyzed using Prism 8.0 (GraphPad, San Diego, CA, USA); normalized curves were plotted and IC50 values were estimated. All FP data were repeated three to five times.
To test the predicted compounds by CADD, we established an FP assay using both Lin28B ZKD and Lin28B CSD+ZKD to be incubated with a FAM-labeled Let-7 oligo containing the GGAG motif. To validate that the signals obtained from FP assays reflect the interaction between Lin28 and Let-7, we have tested: (1) 1 nM–50 uM FAM-labeled Let-7 probes with 10 uM Lin28 proteins and observed a dose-dependent reduction of FP signal; (2) 1 nM FAM labeled Let-7 probes with 1 nM–50 uM Lin28 proteins and observed a dose-dependent increase of FP signal; (3) 1 nM–50 uM doses of non-labeled Let-7 oligo to be incubated with 1 nM FAM probe and 10 uM Lin28 proteins, and observed a dose-dependent reduction of FP signal (Figure 2A,B).
Figure 2 Establishment of the Fluorescence Polarization Assay and Initial compound screening. (A) Graphical representation of the FP assay principle. As the labeled probe floats freely in the solution, it rotates more rapidly, producing a low FP signal. When the labeled probe binds to proteins, it rotates slower and produces a high FP signal. (B) In FP assays, probe titration was performed by using 10 uM protein with […] FAM-labeled Let-7 probe (n = 9 replicates). Protein titration was performed by using 1 nM of FAM-labeled Let-7 probe with 1 nM–50 uM Lin28B ZKD protein (n = 9 replicates), and competition titration using 1 nM–50 µM non-labeled Let-7 probe with 10 uM of Lin28B ZKD protein with 1 nM FAM-labeled Let-7 probe (9 replicates). (C) FP assays were used to screen 163 compounds at the concentration of 20 uM using 1 nM of FAM-labeled Let-7 probe with 10 uM Lin28B ZKD protein.
Figure 3 Lin28 inhibitors block the interaction between Lin28B ZKD and Let-7. […]

DUNE cells = test: Real-time qPCR of Let-7d, SOX2, HMGA2 in DUNE cells; format: cell-based; conditions: 20 uM, 48 h
Protocol: The DUNE cell line and DUNE cells with Lin28B knockout by CRISPR (DUNE (KO)) were reported in our previous studies. IGROV1 cells were obtained from Sigma-Aldrich (St. Louis, MO, USA). DUNE and DUNE (KO) cells were cultured in Dulbecco’s Modified Eagle Medium with high Glucose/L-glutamine (DMEM; Hyclone, Logan, UT, USA) and 10% of fetal bovine serum (FBS; Gibico, Waltham, MA, USA). IGROV1 cells were cultured in Roswell Park Memorial Institute 1640 (RPMI-1640; Hyclone) medium with 10% FBS. All the cell lines were incubated in 5% CO2 at 37 °C and were tested for mycoplasma contamination monthly and cell line authentication was tested by short tandem repeat profiling by ATCC.
There are several standard molecular techniques, including real-time qPCR, flow cytometry, cell proliferation, colony formation, and immunoblotting assays, that have been reported previously by our lab.
Figure 4 Lin28 inhibitors restore Let-7d expression and suppress SOX2 and HMGA2 genes. DUNE (top) and DUNE (KO) (bottom) cells were treated with 20 uM of the indicated compounds for 48 h. Real-time qPCR measured RNA levels of Let-7d, SOX2, and HMGA2. Three biological replicates were performed and all results are presented as mean +/− SD. p-value ≤ 0.05—(*); ≤0.01—(**); ≤0.001—(***).

| SMILES | IC50 (Lin28B ZKD) [µM] | HMGA2 mRNA level (DUNE cells) | Let-7d expression level (DUNE cells) | SOX2 mRNA level (DUNE cells) | maximum inhibition in FP assay (Lin28B ZKD; Lin28B ZKD titration) [%] |
| --- | --- | --- | --- | --- | --- |
| CCOc1cccc2c1N[C@@H](c1ccc(C(=O)O)cc1)[C@H]1CC=C[C@@H]21 [Li71, reference compound] | 55 | strongly inhibited | approximately six- to eight-fold | strongly inhibited |  |
| CCc1cc(=O)[nH]c(Nc2cc(Cl)ccc2O)n1 [Ln7] | ~45 | strongly inhibited | approximately six- to eight-fold | strongly inhibited |  |
| O=c1[nH]c(Nc2ccccc2O)cs1 [Ln15] | ~9 | strongly inhibited | approximately six- to eight-fold | strongly inhibited |  |
| O=c1cccc(-c2nc3cc(F)c(O)cc3c(=O)[nH]2)[nH]1 [Ln115] | ~21 | strongly inhibited | approximately six- to eight-fold | strongly inhibited |  |
| CC(=O)N(C)c1cccc(-c2ccc3nnc(C)n3n2)c1 [compound 1632, reference compound] |  | not | did not show any impacts | not | ≤ 50 |
